For one assay, the system named is HeLa cells. The assay is described as follows: Cell survival (MTT assay, phase contrast) of HeLa cells stably expressing vector, WT or KD LKB1. The format is cell-based, human. As to conditions: 2.5 mM AICAR, within 8 h. As to the method: Results are representative of four independent experiments. Cell viability was determined following AICAR or UV expressed as a percentage of untreated controls. Cell viability quantified by MTT assays run in triplicate on indicated HeLa stable cell lines treated with 2.5 mM AICAR or 50 j/cm^2 UV for 8 h. Results are representative of two independent experiments.
Kinase Assays and Cellular Analysis: AMPK kinase activity was measured using the SAMS peptide as previously described (7). LKB1 phosphorylation of AMPK was carried out in kinase buffer (50 mM Tris pH 7.5, 10 mM MgCl2, 1 mM DTT, 100 μM ATP) for 20 mins at 30° C. For immunopreciptations of active LKB1 kinase, Flag-tagged LKB1 was co-transfected with an equimolar amount of STRAD expression plasmid into HT1080 cells and immunoprecipitated using M2-agarose (Sigma) 24 h post-transfection in NP40 lysis buffer26. Before kinase assays, immunoprecipitated LKB1 was washed 3× in lysis buffer then 2× in kinase buffer. Soluble MBP-AMPK was added at 5 μg per kinase reaction. […]
To determine if LKB1 can mediate a biological response to a stimulus that activates the AMPKK/AMPK cascade we investigated whether LKB1 might modulate cell death under circumstances where AMPK would be activated. […] The extent of cell survival conferred by LKB1 reconstitution in the HeLa cells was quantified by MTT assay (FIG. 5b,c).
Background: Tetrazolium dyes change colour on reduction, which living cells bring about.

The subject of a further assay is quiescent cells. As to conditions: cited from earlier work.
Another assay concerns tuberin. Put plainly: Tuberin mobility shift on SDS-PAGE in transfected HeLa cells. The format is cell-based, human. An excerpt: FIG. 7A: In vitro kinase assay using FLAG-tagged tuberin as a substrate for LKB1-activated AMPK. Purified E. coli produced recombinant AMPK was activated by an in vitro kinase assay with wild-type LKB1, kinase-dead LKB1, or untransfected control immunoprecipitates then isolated and assayed for its ability to phosphorylate tuberin in vitro. FIG. 7B: Comparison of recombinant Akt-mediated tuberin phosphorylation in vitro to recombinant AMPK phosphorylation in vitro. Note that only AMPK-mediated phosphorylation induces a significant mobility shift in tuberin on SDS-PAGE. C: HeLa cells were co-transfected with FLAG-tagged tuberin, and empty vector or wild-type LKB1 and treated with 2 mM AICAR where indicated. Total cell lysates were then immunoblotted with anti-FLAG antisera to detect the introduced tuberin. Note the significant mobility shift induced by AICAR treatment of LKB1-expressing cells. […] FIG. 7D: HeLa cells were transfected with HA-tagged S6K1 and FLAG-tagged wild-type LKB1 along with empty vector, or dominant negative AMPK alpha1 (GST-tagged) or dominant negative AMPK alpha2 (myc tagged). Cells were treated with 2 mM AICAR for 2 h where indicated. HA-immunoprecipitates were immunoblotted with phospho-Thr389 S6K1 antisera to detect activated S6K1 and reprobed for total HA-S6K1 levels. […]

`NC(=O)c1ncn([C@@H]2O[C@H](CO)[C@@H](O)[C@H]2O)c1N` [AICAR, 5-aminoimidazole-4-carboxamide 1-β-D-ribofuranoside]: the cell death entry in the assay with HeLa cells (vector control and kinase-dead LKB1 expressing HeLa cells) is given as “extensive cell death”. Also, the cell viability entry with HeLa cells (wild-type LKB1 expressing HeLa cells) is given as “nearly totally viable”. Besides, in the assay on quiescent cells, the glucocorticoid induced apoptosis result is reported as “protects them from glucocorticoid induced apoptosis”. For the same molecule, the “tuberin mobility on SDS-PAGE” value in the assay with tuberin (HeLa cells expressing wild-type LKB1, 2 mM AICAR) was “significant reduction in tuberin mobility”; in the assay on tuberin (HeLa cells in the absence of LKB1 expression, AICAR), “no effect on tuberin mobility”.

The values above are taken from patent publication US20120122991A1, “METHOD FOR TREATING CANCER BY INCREASING AMP-ACTIVATED KINASE ACTIVITY” (Dana-Farber Cancer Institute, Inc., priority 2003, published 2012).
